Reference: patent US4529736A, “3a-(substituted phenyl)-2,3,3a,4,7,7a-hexahydro[or 3a-(substituted-phenyl)octahydro]-4,7-alkano-1H-isoindoles for treating depression in warm-blooded animals” (American Cyanamid Company, priority 1983, dated 1985)
Structures can show the parent of a compound that is named as a salt. Where two headings read alike, the source gives them in different places.

Tests used:
[1] = test system: stress induced depressed ("coping") behavior; test: Stress Induced Depressed Behavior Test; type: in vivo; conditions: rats, intraperitoneally at 5-20 mg/kg; warm (44.5° C.) surface for 15 minutes; high ratio = active
Protocol: The compounds of this invention are active as antistress agents in warm-blooded animals as evidenced by their results when tested in the Stress Induced Depressed Behavior Test. In this test, rats were confined on a warm (44.5° C.), but aversive, surface for 15 minutes. After 5-6 minutes, control rats began to show episodes of depressed ("coping") behavior where they remained flat and immobile for short to long periods of time. The onset and total duration of this behavior was timed. A ratio of onset/duration was calculated. The test compounds were administered intraperitoneally at 5-20 mg/kg of body weight. Active compounds prolong the time of onset and shorten the duration time resulting in high ratios.

[2] = test system: tetrabenazine-induced ptosis; test: Tetrabenazine Induced Ptosis (inhibition of ptosis); type: in vivo; conditions: Mus musculus, read-out: % Mice Responding
Protocol: The antidepressant activity of the compounds of this invention was further established in the following test. Inhibition of tetrabenazine-induced ptosis is observed concomitantly with the inhibition of tetrabenazine-induced depression. Ptosis is defined as more than 75% closure of palpebral aperture induced in animals by the administration of tetrabenazine methanesulfonate. The compounds were administered orally (P.O.) or intraperitoneally (I.P.) at 25 mg/kg to groups of 10 mice. Thirty minutes later, tetrabenazine methanesulfonate was administered intraperitoneally to each mouse at a dose of 39 mg/kg. Thirty minutes after the injection of tetrabenazine, the mice were placed on an observation disc and examined for 10 seconds for inhibition of ptosis. […]

[3] = target: T1, [^3 H]-imipramine binding to human platelet membranes (Homo sapiens, UniProt P31645); test: Platelet Imipramine Binding: inhibition of [^3 H]-imipramine binding to human platelet membranes; conditions: 50 μl of 50 μM compound stock + 200 μl membrane/[^3 H]imipramine mixture; 60 minutes at 0° C.; 10 μM desmethylimipramine = 0% binding
T1 construct: from tissue; host or cells: human platelets (sonicated, washed membranes)
T1 sequence (P31645 whole entry): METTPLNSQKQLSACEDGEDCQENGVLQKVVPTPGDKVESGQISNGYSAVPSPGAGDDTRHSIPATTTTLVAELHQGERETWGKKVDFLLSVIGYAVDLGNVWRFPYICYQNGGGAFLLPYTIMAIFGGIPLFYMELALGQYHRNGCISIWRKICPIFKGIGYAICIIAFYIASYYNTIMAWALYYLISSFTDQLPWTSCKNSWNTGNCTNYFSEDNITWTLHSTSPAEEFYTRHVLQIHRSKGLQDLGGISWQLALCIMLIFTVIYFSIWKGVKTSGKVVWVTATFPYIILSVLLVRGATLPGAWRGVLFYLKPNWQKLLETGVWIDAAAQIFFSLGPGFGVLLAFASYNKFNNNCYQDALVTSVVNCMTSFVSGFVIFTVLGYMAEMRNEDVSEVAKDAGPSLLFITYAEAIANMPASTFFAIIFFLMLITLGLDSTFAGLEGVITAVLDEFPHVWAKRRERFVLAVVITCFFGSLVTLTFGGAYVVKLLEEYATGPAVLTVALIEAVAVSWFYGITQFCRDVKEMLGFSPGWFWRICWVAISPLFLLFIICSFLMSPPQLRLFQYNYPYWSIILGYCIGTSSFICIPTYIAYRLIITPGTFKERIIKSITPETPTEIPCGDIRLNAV
Protocol: The activity of the compounds of this invention as antidepressant agents was further verified in the following test which measures the ability of a test compound to inhibit [^3 H]-imipramine binding to human platelet membranes.
Human platelet concentrates were diluted 1:20 with antiprotease containing buffer of the following composition:
0.005N potassium chloride
3 mN ethylenediaminetetraacetic acid
1 mN ethyleneglycol-bis-(β-aminoethyl ether)-N,N'-tetraacetic acid
This buffer was kept at pH 6.8 to prevent platelet release and aggregation.
The diluted platelets were centrifuged at 2500 g and then resuspended in 50 volumes of the same buffer. The cells were then ruptured with a Branson sonicator while the suspension was maintained in an ice bath. The ruptured cells were then centrifuged at 18,000 g, resuspended in fresh buffer and recentrifuged at 18,000 g. These membranes were diluted with the above antiprotease buffer which had been adjusted to pH 7.4 and to a concentration of 3.0 mg/ml.
The test compounds were dissolved in dimethylsulfoxide at a concentration of 50 mM and then diluted 1:10 in either water, 0.1M hydrochloric acid or 0.1M sodium hydroxide. They were then diluted 1:100 in buffer to 50 μM, and 50 μl of this stock solution was placed in triplicate test tubes. The tubes were cooled to 0° C. and 200 μl of the following mixture were added:
100 μl of 3 mg/ml membrane in buffer
50 μl of 15 nM[^3 H]imipramine in buffer
The tubes were incubated for 60 minutes at 0° C. Controls contain either buffer alone (100%) of 10 μM of final desmethylimipramine (DMI) (0%).
The samples were diluted with 5 ml of buffer [0.12M-sodium chloride, 0.05M-tris buffer, 0.005M-potassium chloride (pH 7.4)], vacuum filtered and washed twice with 5 ml of buffer. Radioactivity was measured in a liquid scintillation counter and the degree of binding was calculated.

[4] = test system: tetrabenazine-induced depression; test: Tetrabenazine Induced Depression (exploratory behaviour); type: in vivo; conditions: Mus musculus, read-out: % Mice Protected
Protocol: The compounds of this invention are useful as antidepressant agents in warm-blooded animals as verified by the following test. The antidepressant properties of these compounds were tested by measuring their ability to counteract depression induced in animals by the administration of tetrabenazine methanesulfonate. Each test compound was administered orally (P.O.) or intraperitoneally (I.P.) to 10 mice at a dose of 25 mg/kg of body weight. Thirty minutes later, tetrabenazine methanesulfonate was administered intraperitoneally to each mouse at a dose of 39 mg/kg of body weight, which dose is known to depress markedly the exploratory behaviour of normal mice. Thirty minutes later the mice were tested for their exploratory behaviour as described by E. Greenblatt and A. C. Osterberg, Toxicology and Applied Pharmacology, 7, 566-578 (1965).

SMILES | Ratio onset/duration [1] | responders at 25 mg/kg ([2]; ip) [%] | inhibition at 10 µM [3] [%] | responders at 25 mg/kg ([4]; po) [%] | responders at 25 mg/kg ([4]; ip) [%] | responders at 25 mg/kg ([2]; po) [%] | responders at 25 mg/kg ([2]; po, P.O., 25 mg/kg, responders: 75% or greater opening of palpebral aperture) [%] | responders at 25 mg/kg ([4]; po, P.O., 25 mg/kg, 10 mice, tetrabenazine methanesulfonate 39 mg/kg I.P.) [%]
CCN1C[C@@H]2C3CCC(CC3)[C@]2(c2ccc(Cl)c(Cl)c2)C1 (relative stereo) [3a-(3,4-Dichlorophenyl)-2-ethyloctahydro-4,7-ethano-1H-isoindole fumarate (1:1)] | 66 | 100 | 89 | 50 | – | – | – | –
CN1C[C@@H]2[C@@H]3C=C[C@@H](C3)[C@]2(c2cccc(C(F)(F)F)c2)C1 (relative stereo) [2,3,3a,4,7,7a-Hexahydro-2-methyl-3a-[3-(trifluoromethyl)phenyl]-4,7-methano-1H-isoindole fumarate] | – | 100 | 91 | – | 70 | – | – | –
CN1C[C@@H]2[C@@H]3CC[C@@H](C3)[C@]2(c2ccc([N+](=O)[O-])cc2)C1 (relative stereo) [Octahydro-2-methyl-3a-(4-nitrophenyl)-4,7-methano-1H-isoindole fumarate (1:1)] | – | 70 | 66 | – | 30 | – | – | –
CN1C[C@@H]2[C@@H]3CC[C@@H](C3)[C@]2(c2ccc(N)cc2)C1 (relative stereo) [4-(1,2,3,4,5,6,7,7a-Octahydro-2-methyl-4,7-methano-3aH-isoindol-3a-yl)benzenamine fumarate (1:1)] | – | 100 | 80 | – | 50 | – | – | –
CN1C[C@@H]2[C@@H]3C=C[C@@H](C3)[C@]2(c2cccc(Cl)c2)C1 (relative stereo) [3a-(3-Chlorophenyl)2,3,3a,4,7,7a-hexahydro-2-methyl-4,7-methano-1H-isoindole fumarate (1:1)] | 13 | 100 | 86 | – | 60 | – | – | –
CN1C[C@@H]2[C@@H]3C=C[C@@H](C3)[C@]2(c2ccc(N)cc2)C1 (relative stereo) [4-(1,2,3,4,7,7a-Hexahydro-2-methyl-4,7-methano-3aH-isoindol-3a-yl)benzenamine fumarate (1:2)] | – | 100 | – | 70 | – | – | – | –
CN1C[C@@H]2[C@@H]3CC[C@@H](C3)[C@]2(c2ccc(F)c(F)c2)C1 (relative stereo) [3a-(3,4-Difluorophenyl)octahydro-2-methyl-4,7-methano-1H-isoindole fumarate (1:1)] | – | 70 | 95 | – | 50 | – | – | –
Clc1ccc([C@@]23CNC[C@@H]2[C@@H]2C=C[C@H]3C2)cc1 (relative stereo) [3-a-(4-Chlorophenyl)-2,3,3a,4,7,7a-hexahydro-4,7-methano-1H-isoindole fumarate] | – | – | 98 | – | 60 | 80 | – | –
CN1C[C@@H]2C3CCC(CC3)[C@]2(c2ccc(Cl)c(Cl)c2)C1 (relative stereo) [3a-(3,4-Dichlorophenyl)octahydro-2-methyl-4,7-ethano-1H-isoindole fumarate (1:1)] | 83 | 90 | 94 | 50 | – | – | – | –
Clc1ccc([C@@]23CNC[C@@H]2[C@@H]2CC[C@H]3C2)cc1Cl (relative stereo) [3a-(3,4-Dichlorophenyl)octahydro-4,7-methano-1H-isoindole hydrochloride] | 76 | 100 | 96 | 40 | – | – | – | –
CN1C[C@@H]2[C@@H]3CC[C@@H](C3)[C@]2(c2ccc(Cl)c(Cl)c2)C1 (relative stereo) [3a-(3,4-Dichlorophenyl)octahydro-2-methyl-4,7-methano-1H-isoindole hydrochloride] | 59 | 100 | 93 | – | 60 | – | – | –
CN1C[C@@H]2C3CCC(CC3)[C@]2(c2ccc(F)c(F)c2)C1 (relative stereo) [3a-(3,4-Difluorophenyl)octahydro-2-methyl-4,7-ethano-1H-isoindole fumarate (1:1)] | – | – | 100 | – | – | – | – | –
Cc1ccc([C@@]23CNC[C@@H]2[C@@H]2C=C[C@H]3C2)cc1 (relative stereo) [2,3,3a,4,7,7a-Hexahydro-3a-(4-methylphenyl)-4,7-methano-1H-isoindole maleate (1:1)] | – | 60 | 94 | – | – | – | – | –
c1ccc([C@@]23CNC[C@@H]2[C@@H]2CC[C@H]3C2)cc1 (relative stereo) [Octahydro-3a-phenyl-4,7-methano-1H-isoindole fumarate] | – | 50 | 98 | – | 50 | – | – | –
COc1cccc([C@@]23CN(C)C[C@@H]2[C@@H]2C=C[C@H]3C2)c1 (relative stereo) [2,3,3a,4,7,7a-Hexahydro-3a-(3-methoxyphenyl)-2-methyl-4,7-methano-1H-isoindole maleate (1:1)] | – | – | 86 | 40 | – | 60 | – | –
CN1C[C@@H]2[C@@H]3C=C[C@@H](C3)[C@]2(c2cccc(O)c2)C1 (relative stereo) [3-(1,2,3,4,7,7a-Hexahydro-2-methyl-4,7-methano-3aH-isoindol-3a-yl)phenol] | – | – | 86 | 60 | – | 100 | – | –
CN1C[C@@H]2[C@@H]3CC[C@@H](C3)[C@]2(c2ccc(Cl)cc2)C1 (relative stereo) [3a-(4-Chlorophenyl)octahydro-2-methyl-4,7-methano-1H-isoindole fumarate (1:1)] | 20 | 90 | 91 | – | 60 | – | – | –
C[N+]1(C)C[C@@H]2[C@@H]3CC[C@@H](C3)[C@]2(c2ccc(N=[N+]=[N-])cc2)C1 (relative stereo) [3a-(4-Azidophenyl)octahydro-2,2-dimethyl-4,7-methano-1H-isoindolium iodide] | – | – | 88 | – | – | – | 100 | 30
Cc1ccc([C@@]23CN(C)C[C@@H]2[C@@H]2C=C[C@H]3C2)cc1 (relative stereo) [2,3,3a,4,7,7a-Hexahydro-2-methyl-3a-(4-methylphenyl)-4,7-methano-1H-isoindole maleate (1:1)] | – | – | 98 | – | 80 | 90 | – | –
